Laboratory results as given in the NIST ThermoML archive (doi:10.1007/s10765-011-0999-6).

Conditions: Gas, Capillary tube (Ostwald / Ubbelohde) method

N#N [nitrogen]
Conditions	viscosity [mPa·s]
297.22 K, 31330 kPa	0.02799
297.23 K, 40300 kPa	0.03044
297.24 K, 50620 kPa	0.03457
297.25 K, 24520 kPa	0.02464
297.25 K, 85020 kPa	0.0474
297.26 K, 70280 kPa	0.04283
297.3 K, 570 kPa	0.01774
297.32 K, 2900 kPa	0.01836
297.32 K, 4960 kPa	0.01892
297.33 K, 9020 kPa	0.0199
297.45 K, 60740 kPa	0.03906
297.46 K, 95040 kPa	0.05291
333.14 K, 10530 kPa	0.02163
333.16 K, 15340 kPa	0.0222
333.22 K, 24490 kPa	0.02538
333.3 K, 34970 kPa	0.02945
333.42 K, 48850 kPa	0.03239
333.51 K, 74270 kPa	0.03968
333.59 K, 95150 kPa	0.04811
400.07 K, 7230 kPa	0.02297
400.07 K, 10740 kPa	0.02334
400.07 K, 15630 kPa	0.02427
400.07 K, 25910 kPa	0.02639
400.07 K, 35280 kPa	0.0284
400.07 K, 47240 kPa	0.03189
400.07 K, 65020 kPa	0.03573
400.07 K, 95070 kPa	0.04385
499.24 K, 30120 kPa	0.02951
499.24 K, 48890 kPa	0.03275
499.24 K, 69570 kPa	0.03658
499.24 K, 94610 kPa	0.04084
499.43 K, 10560 kPa	0.02699

[HH] [hydrogen]
Conditions	viscosity [mPa·s]
294.1 K, 34430 kPa	0.00964
294.52 K, 4680 kPa	0.00901
294.91 K, 10160 kPa	0.00911
295 K, 81640 kPa	0.01139
295.01 K, 52730 kPa	0.01021
295.02 K, 99320 kPa	0.01196
333.28 K, 4940 kPa	0.00983
333.3 K, 48480 kPa	0.01055
333.31 K, 69110 kPa	0.01122
333.31 K, 94920 kPa	0.01217
333.32 K, 9480 kPa	0.0099
400.1 K, 28190 kPa	0.01115
400.11 K, 4830 kPa	0.01109
400.11 K, 9190 kPa	0.01127
400.11 K, 49790 kPa	0.01163
400.12 K, 71210 kPa	0.01217
